Laboratory results: ChEMBL document CHEMBL1275492, “In vitro activity of ceftobiprole against pathogens from two phase 3 clinical trials of complicated skin and skin structure infections” (2008)

Key:
Assay type in all cases: functional
Prevotella = test: Antibacterial activity against Prevotella spp. obtained from complicated skin and skin structure infections by agar dilution method
Bacteroides fragilis = test: Antibacterial activity against Bacteroides fragilis obtained from complicated skin and skin structure infections by agar dilution method
Veillonella = test: Antibacterial activity against Veillonella spp. obtained from complicated skin and skin structure infections by agar dilution method
Enterococcus faecium = test: Antibacterial activity against Enterococcus faecium obtained from complicated skin and skin structure infections by agar dilution method
Pseudomonas aeruginosa = test: Antibacterial activity against Pseudomonas aeruginosa obtained from complicated skin and skin structure infections by agar dilution method
Streptococcus pyogenes = test: Antibacterial activity against Streptococcus pyogenes obtained from complicated skin and skin structure infections by agar dilution method
[1] = system: Staphylococcus intermedius; test: Antibacterial activity against Staphylococcus intermedius obtained from complicated skin and skin structure infections by agar dilution method
Providencia stuartii = test: Antibacterial activity against Providencia stuartii obtained from complicated skin and skin structure infections by agar dilution method
Staphylococcus aureus [2] = test: Antibacterial activity against Staphylococcus aureus obtained from complicated skin and skin structure infections by agar dilution method
[3] = Antibacterial activity against Streptococcus sp. 'group G' obtained from complicated skin and skin structure infections by agar dilution method
Aerococcus viridans = test: Antibacterial activity against Aerococcus viridans obtained from complicated skin and skin structure infections by agar dilution method
[4] = system: Streptococcus constellatus; test: Antibacterial activity against Streptococcus constellatus obtained from complicated skin and skin structure infections by agar dilution method
Enterobacter cloacae = test: Antibacterial activity against Enterobacter cloacae obtained from complicated skin and skin structure infections by agar dilution method
Morganella morganii = test: Antibacterial activity against Morganella morganii obtained from complicated skin and skin structure infections by agar dilution method
[5] = system: Staphylococcus haemolyticus; test: Antibacterial activity against coagulase-negative Staphylococcus haemolyticus obtained from complicated skin and skin structure infections by agar dilution method
[6] = system: Staphylococcus saprophyticus; test: Antibacterial activity against coagulase-negative Staphylococcus saprophyticus obtained from complicated skin and skin structure infections by agar dilution method
Serratia marcescens = test: Antibacterial activity against Serratia marcescens obtained from complicated skin and skin structure infections by agar dilution method
Enterococcus faecalis = test: Antibacterial activity against Enterococcus faecalis obtained from complicated skin and skin structure infections by agar dilution method
Staphylococcus cohnii = test: Antibacterial activity against coagulase-negative Staphylococcus cohnii obtained from complicated skin and skin structure infections by agar dilution method
[7] = system: Staphylococcus lugdunensis; test: Antibacterial activity against coagulase-negative Staphylococcus lugdunensis obtained from complicated skin and skin structure infections by agar dilution method
[8] = system: Staphylococcus lugdunensis; test: Antibacterial activity against methicillin-resistant, oxacillin-susceptible, coagulase-negative, mecA-positive Staphylococcus lugdunensis obtained from complicated skin and skin structure infections by agar dilution method
Gemella = test: Antibacterial activity against Gemella spp. obtained from complicated skin and skin structure infections by agar dilution method
Pseudomonas fluorescens = test: Antibacterial activity against Pseudomonas fluorescens obtained from complicated skin and skin structure infections by agar dilution method
Citrobacter freundii = test: Antibacterial activity against Citrobacter freundii obtained from complicated skin and skin structure infections by agar dilution method
[9] = Antibacterial activity against Streptococcus sp. 'group C' obtained from complicated skin and skin structure infections by agar dilution method
Streptococcus mitis = test: Antibacterial activity against Streptococcus mitis obtained from complicated skin and skin structure infections by agar dilution method
Enterobacter amnigenus = test: Antibacterial activity against Enterobacter amnigenus obtained from complicated skin and skin structure infections by agar dilution method; conditions: Lelliottia amnigena
Citrobacter braakii = test: Antibacterial activity against Citrobacter braakii obtained from complicated skin and skin structure infections by agar dilution method
Staphylococcus hominis = test: Antibacterial activity against coagulase-negative Staphylococcus hominis obtained from complicated skin and skin structure infections by agar dilution method
Proteus mirabilis = test: Antibacterial activity against Proteus mirabilis obtained from complicated skin and skin structure infections by agar dilution method
Klebsiella aerogenes = test: Antibacterial activity against Enterobacter aerogenes obtained from complicated skin and skin structure infections by agar dilution method
Staphylococcus = test: Antibacterial activity against methicillin-susceptible, coagulase-negative Staphylococcus obtained from complicated skin and skin structure infections by agar dilution method
Staphylococcus aureus [10] = test: Antibacterial activity against methicillin resistant Staphylococcus aureus obtained from complicated skin and skin structure infections by agar dilution method
Proteus vulgaris = test: Antibacterial activity against Proteus vulgaris obtained from complicated skin and skin structure infections by agar dilution method
Lactococcus lactis = test: Antibacterial activity against Lactococcus lactis obtained from complicated skin and skin structure infections by agar dilution method
Proteus penneri = test: Antibacterial activity against Proteus penneri obtained from complicated skin and skin structure infections by agar dilution method
Klebsiella oxytoca = test: Antibacterial activity against Klebsiella oxytoca obtained from complicated skin and skin structure infections by agar dilution method
Staphylococcus warneri = test: Antibacterial activity against coagulase-negative Staphylococcus warneri obtained from complicated skin and skin structure infections by agar dilution method
Mammaliicoccus sciuri = test: Antibacterial activity against coagulase-negative Staphylococcus sciuri obtained from complicated skin and skin structure infections by agar dilution method
Staphylococcus aureus [11] = test: Antibacterial activity against methicillin susceptible Staphylococcus aureus obtained from complicated skin and skin structure infections by agar dilution method
Gemella morbillorum = test: Antibacterial activity against Gemella morbillorum obtained from complicated skin and skin structure infections […]
Staphylococcus capitis = test: Antibacterial activity against coagulase-negative Staphylococcus capitis obtained from complicated skin and skin structure infections by agar dilution method
Micrococcus = test: Antibacterial activity against Micrococcus spp. obtained from complicated skin and skin structure infections by agar dilution method
[12] = system: Stenotrophomonas maltophilia; test: Antibacterial activity against Stenotrophomonas maltophilia obtained from complicated skin and skin structure infections by agar dilution method
Salmonella = test: Antibacterial activity against Salmonella spp. obtained from complicated skin and skin structure infections by agar dilution method
Acinetobacter baumannii = test: Antibacterial activity against Acinetobacter baumannii obtained from complicated skin and skin structure infections by agar dilution method
Escherichia coli = test: Antibacterial activity against Escherichia coli obtained from complicated skin and skin structure infections by agar dilution method
[13] = system: Staphylococcus epidermidis; test: Antibacterial activity against coagulase-negative Staphylococcus epidermidis obtained from complicated skin and skin structure infections by agar dilution method
Streptococcus agalactiae = test: Antibacterial activity against Streptococcus agalactiae obtained from complicated skin and skin structure infections by agar dilution method
Klebsiella pneumoniae = test: Antibacterial activity against Klebsiella pneumoniae obtained from complicated skin and skin structure infections by agar dilution method
Bacillus = test: Antibacterial activity against Bacillus spp. obtained from complicated skin and skin structure infections by agar dilution method

For CO[C@@]1(NC(=O)Cc2cccs2)C(=O)N2C(C(=O)O)=C(COC(N)=O)CS[C@@H]21 [CEFOXITIN], the MIC (Prevotella) was at most 1 µg/mL, the MIC (Bacteroides fragilis) was at most 1 µg/mL and the MIC (Veillonella) was at most 1 µg/mL.

C[C@H]1COc2c(N3CCN(C)CC3)c(F)cc3c(=O)c(C(=O)O)cn1c23.C[C@H]1COc2c(N3CCN(C)CC3)c(F)cc3c(=O)c(C(=O)O)cn1c23.O [LEVOFLOXACIN] gave an MIC50 (Enterococcus faecium) of 4 µg/mL, an MIC50 (Pseudomonas aeruginosa) of 4 µg/mL and an MIC90 (Pseudomonas aeruginosa) of 64 µg/mL. It also gave an MIC50 (Streptococcus pyogenes) of 0.5 µg/mL, an MIC90 (Streptococcus pyogenes) of 0.5 µg/mL and an MIC [1] of at most 0.03 µg/mL. For the same compound, the MIC50 [1] was at most 0.03 µg/mL, the MIC90 [1] was 0.12 µg/mL and the MIC50 (Providencia stuartii) was at most 0.06 µg/mL. It also gave an MIC90 (Providencia stuartii) of 8 µg/mL, an MIC50 (Staphylococcus aureus [2]) of 0.12 µg/mL and an MIC90 (Staphylococcus aureus [2]) of 4 µg/mL. The MIC50 [3] was 0.5 µg/mL, the MIC90 [3] was 0.5 µg/mL and the MIC50 (Aerococcus viridans) was 0.5 µg/mL. It also gave an MIC90 (Aerococcus viridans) of 4 µg/mL, an MIC [4] of 0.25 µg/mL and an MIC50 [4] of 0.25 µg/mL. For the same compound, the MIC90 [4] was 1 µg/mL, the MIC50 (Enterobacter cloacae) was 0.06 µg/mL and the MIC90 (Enterobacter cloacae) was 4 µg/mL. It also gave an MIC50 (Morganella morganii) of 1 µg/mL, an MIC90 (Morganella morganii) of 64 µg/mL and an MIC50 [5] of 0.12 µg/mL. For the same compound, the MIC90 [5] was 8 µg/mL, the MIC50 [6] was 0.12 µg/mL and the MIC90 [6] was 8 µg/mL. For the same compound, the MIC50 (Serratia marcescens) was at most 0.06 µg/mL, the MIC90 (Serratia marcescens) was 8 µg/mL and the MIC50 (Enterococcus faecalis) was 1 µg/mL. For the same compound, the MIC90 (Enterococcus faecalis) was 2 µg/mL, the MIC50 (Staphylococcus cohnii) was 0.12 µg/mL and the MIC90 (Staphylococcus cohnii) was 8 µg/mL. For the same compound, the MIC50 [7] was 0.12 µg/mL, the MIC90 [7] was 8 µg/mL and the MIC50 [8] was 0.25 µg/mL. For the same compound, the MIC90 [8] was over 8 µg/mL, the MIC50 (Gemella) was 0.5 µg/mL and the MIC90 (Gemella) was 4 µg/mL. The MIC50 (Pseudomonas fluorescens) was 4 µg/mL, the MIC90 (Pseudomonas fluorescens) was 8 µg/mL and the MIC50 (Citrobacter freundii) was at most 0.06 µg/mL. It also gave an MIC90 (Citrobacter freundii) of 8 µg/mL, an MIC50 [9] of 0.5 µg/mL and an MIC90 [9] of 0.5 µg/mL. The MIC (Streptococcus mitis) was at most 0.03 µg/mL, the MIC50 (Streptococcus mitis) was at most 0.03 µg/mL and the MIC90 (Streptococcus mitis) was 0.12 µg/mL. It also gave an MIC50 (Enterobacter amnigenus) of at most 0.06 µg/mL, an MIC90 (Enterobacter amnigenus) of 8 µg/mL and an MIC50 (Citrobacter braakii) of at most 0.06 µg/mL. The MIC90 (Citrobacter braakii) was 8 µg/mL, the MIC50 (Staphylococcus hominis) was 0.12 µg/mL and the MIC90 (Staphylococcus hominis) was 8 µg/mL. It also gave an MIC50 (Proteus mirabilis) of at most 0.06 µg/mL, an MIC90 (Proteus mirabilis) of over 8 µg/mL and an MIC50 (Klebsiella aerogenes) of at most 0.06 µg/mL. For the same compound, the MIC90 (Klebsiella aerogenes) was 8 µg/mL, the MIC50 (Staphylococcus) was 0.12 µg/mL and the MIC90 (Staphylococcus) was 0.25 µg/mL. It also gave an MIC50 (Staphylococcus aureus [10]) of 4 µg/mL, an MIC90 (Staphylococcus aureus [10]) of 8 µg/mL and an MIC50 (Proteus vulgaris) of at most 0.06 µg/mL. For the same compound, the MIC90 (Proteus vulgaris) was 8 µg/mL, the MIC50 (Lactococcus lactis) was 0.5 µg/mL and the MIC90 (Lactococcus lactis) was 4 µg/mL. For the same compound, the MIC50 (Proteus penneri) was at most 0.06 µg/mL, the MIC90 (Proteus penneri) was 8 µg/mL and the MIC50 (Klebsiella oxytoca) was at most 0.06 µg/mL. It also gave an MIC90 (Klebsiella oxytoca) of 8 µg/mL, an MIC50 (Staphylococcus warneri) of 0.12 µg/mL and an MIC90 (Staphylococcus warneri) of 8 µg/mL. It also gave an MIC50 (Mammaliicoccus sciuri) of 0.12 µg/mL, an MIC90 (Mammaliicoccus sciuri) of 8 µg/mL and an MIC50 (Staphylococcus aureus [11]) of 0.12 µg/mL. It also gave an MIC90 (Staphylococcus aureus [11]) of 0.5 µg/mL, an MIC50 (Gemella morbillorum) of 0.5 µg/mL and an MIC90 (Gemella morbillorum) of 4 µg/mL. It also gave an MIC50 (Staphylococcus capitis) of 0.12 µg/mL, an MIC90 (Staphylococcus capitis) of 8 µg/mL and an MIC50 (Micrococcus) of 0.5 µg/mL. The MIC90 (Micrococcus) was 4 µg/mL, the MIC50 [12] was 4 µg/mL and the MIC90 [12] was 8 µg/mL. The MIC50 (Salmonella) was at most 0.06 µg/mL, the MIC90 (Salmonella) was 8 µg/mL and the MIC50 (Acinetobacter baumannii) was 4 µg/mL. It also gave an MIC90 (Acinetobacter baumannii) of 8 µg/mL, an MIC50 (Escherichia coli) of 0.03 µg/mL and an MIC90 (Escherichia coli) of 1 µg/mL. It also gave an MIC50 [13] of 0.12 µg/mL, an MIC90 [13] of 8 µg/mL and an MIC (Streptococcus agalactiae) of 0.5 µg/mL. The MIC50 (Streptococcus agalactiae) was 0.5 µg/mL, the MIC90 (Streptococcus agalactiae) was 1 µg/mL and the MIC50 (Klebsiella pneumoniae) was 0.06 µg/mL. It also gave an MIC90 (Klebsiella pneumoniae) of 4 µg/mL, an MIC50 (Bacillus) of 0.5 µg/mL and an MIC90 (Bacillus) of 4 µg/mL.
